Key:
NCI-H460 = assay: Antiproliferative activity against human NCI-H460 cells; assay type: functional, cell-based
MKN-45 = assay: Antiproliferative activity against human MKN45 cells; assay type: functional, cell-based
UO-31 = assay: Antiproliferative activity against human UO31 cells; assay type: functional, cell-based
MCF7 = assay: Antiproliferative activity against human MCF7 cells; assay type: functional, cell-based
MX1 = assay: Antiproliferative activity against human MX1 cells; assay type: functional, cell-based
[1] = target: T1, Serine/threonine-protein kinase B-raf (Homo sapiens, UniProt P15056); assay: Inhibition of BRAF (unknown origin)
A-375 [2] = assay: Antiproliferative activity against human A375 cells; assay type: functional, cell-based
[3] = target: T2, Serine/threonine-protein kinase B-raf (Homo sapiens, UniProt P15056, V600E); assay: Inhibition of BRAF V600E mutant (unknown origin)
HCT-116 = assay: Antiproliferative activity against human HCT116 cells; assay type: functional, cell-based
[4] = target: T3, RAF proto-oncogene serine/threonine-protein kinase (Homo sapiens, UniProt P04049); assay: Inhibition of CRAF (unknown origin)
[5] = target: T4, Serine/threonine-protein kinase A-Raf (Homo sapiens, UniProt P10398); assay: Inhibition of ARAF (unknown origin)
T4 sequence (P10398 whole entry): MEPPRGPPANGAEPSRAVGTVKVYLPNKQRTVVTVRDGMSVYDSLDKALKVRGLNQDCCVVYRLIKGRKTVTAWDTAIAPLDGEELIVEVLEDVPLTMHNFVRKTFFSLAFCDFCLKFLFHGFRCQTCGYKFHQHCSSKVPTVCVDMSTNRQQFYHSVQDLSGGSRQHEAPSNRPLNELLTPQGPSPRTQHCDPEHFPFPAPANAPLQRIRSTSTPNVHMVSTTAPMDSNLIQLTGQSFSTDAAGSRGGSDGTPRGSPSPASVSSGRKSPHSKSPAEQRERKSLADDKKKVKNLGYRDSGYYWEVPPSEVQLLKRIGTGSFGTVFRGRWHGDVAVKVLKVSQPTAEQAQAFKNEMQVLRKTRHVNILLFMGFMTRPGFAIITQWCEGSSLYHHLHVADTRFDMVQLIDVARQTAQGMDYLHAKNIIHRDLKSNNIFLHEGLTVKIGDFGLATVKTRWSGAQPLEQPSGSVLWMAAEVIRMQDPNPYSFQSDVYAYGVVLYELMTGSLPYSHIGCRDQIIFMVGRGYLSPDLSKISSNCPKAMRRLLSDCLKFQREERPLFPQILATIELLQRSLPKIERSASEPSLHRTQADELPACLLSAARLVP

[6] = target: T2, Serine/threonine-protein kinase B-raf; assay: Inhibition of […] BRAF V600E mutant (AA416 to 766 residues (unknown origin) using full length His6-tagged MEK1 as substrate after 20 mins in presence of 33P-gamma-ATP by hotspot kinase assay
[7] = target: T4, Serine/threonine-protein kinase A-Raf; assay: Inhibition of ARAF (unknown origin) after 20 mins in presence of 33P-gamma-ATP by hotspot kinase
[8] = target: T1, Serine/threonine-protein kinase B-raf; assay: Inhibition of BRAF (unknown origin) using full length His6-tagged MEK1 as substrate after 20 mins in presence of 33P-gamma-ATP by hotspot kinase assay
[9] = target: T3, RAF proto-oncogene serine/threonine-protein kinase; assay: Inhibition of CRAF (unknown origin) after 20 mins in presence of 33P-gamma-ATP by hotspot kinase assay
A-375 [10] = assay: Antiproliferative activity against human A375 cells after 72 hrs by CTG solution based luminescence assay; assay type: functional, cell-based; settings: A-375, 72 h
COLO 205 = assay: Antiproliferative activity against human COLO205 cells after 72 hrs by CTG solution based luminescence assay; assay type: functional, cell-based; settings: COLO 205, 72 h
SK-MEL-2 = assay: Antiproliferative activity against human SK-MEL-2 cells after 72 hrs by CTG solution based luminescence assay; assay type: functional, cell-based; settings: SK-MEL-2, 72 h
HepG2 = assay: Antiproliferative activity against human HepG2 cells; assay type: functional, cell-based
KETR3 = assay: Antiproliferative activity against human Ketr3 cells; assay type: functional, cell-based
HT-29 = assay: Antiproliferative activity against human HT-29 cells; assay type: functional, cell-based

T3 sequence (P04049 whole entry): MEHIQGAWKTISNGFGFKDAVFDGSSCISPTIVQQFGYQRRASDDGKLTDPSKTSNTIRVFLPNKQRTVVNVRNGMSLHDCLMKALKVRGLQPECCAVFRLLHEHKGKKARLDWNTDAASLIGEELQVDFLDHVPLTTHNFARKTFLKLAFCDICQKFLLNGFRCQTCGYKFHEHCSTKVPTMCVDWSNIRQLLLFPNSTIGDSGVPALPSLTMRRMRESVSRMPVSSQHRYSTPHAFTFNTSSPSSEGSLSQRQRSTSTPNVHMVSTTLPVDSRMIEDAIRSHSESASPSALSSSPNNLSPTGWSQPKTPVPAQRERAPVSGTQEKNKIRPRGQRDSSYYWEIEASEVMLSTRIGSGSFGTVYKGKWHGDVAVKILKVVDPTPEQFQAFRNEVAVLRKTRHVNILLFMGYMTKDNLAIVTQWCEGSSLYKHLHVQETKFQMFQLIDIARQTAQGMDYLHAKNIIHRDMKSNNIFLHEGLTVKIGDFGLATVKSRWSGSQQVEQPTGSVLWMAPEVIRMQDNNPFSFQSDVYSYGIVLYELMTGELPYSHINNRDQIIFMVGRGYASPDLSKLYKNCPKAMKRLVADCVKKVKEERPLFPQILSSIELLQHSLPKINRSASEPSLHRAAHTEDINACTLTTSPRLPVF
T1 sequence (P15056 whole entry): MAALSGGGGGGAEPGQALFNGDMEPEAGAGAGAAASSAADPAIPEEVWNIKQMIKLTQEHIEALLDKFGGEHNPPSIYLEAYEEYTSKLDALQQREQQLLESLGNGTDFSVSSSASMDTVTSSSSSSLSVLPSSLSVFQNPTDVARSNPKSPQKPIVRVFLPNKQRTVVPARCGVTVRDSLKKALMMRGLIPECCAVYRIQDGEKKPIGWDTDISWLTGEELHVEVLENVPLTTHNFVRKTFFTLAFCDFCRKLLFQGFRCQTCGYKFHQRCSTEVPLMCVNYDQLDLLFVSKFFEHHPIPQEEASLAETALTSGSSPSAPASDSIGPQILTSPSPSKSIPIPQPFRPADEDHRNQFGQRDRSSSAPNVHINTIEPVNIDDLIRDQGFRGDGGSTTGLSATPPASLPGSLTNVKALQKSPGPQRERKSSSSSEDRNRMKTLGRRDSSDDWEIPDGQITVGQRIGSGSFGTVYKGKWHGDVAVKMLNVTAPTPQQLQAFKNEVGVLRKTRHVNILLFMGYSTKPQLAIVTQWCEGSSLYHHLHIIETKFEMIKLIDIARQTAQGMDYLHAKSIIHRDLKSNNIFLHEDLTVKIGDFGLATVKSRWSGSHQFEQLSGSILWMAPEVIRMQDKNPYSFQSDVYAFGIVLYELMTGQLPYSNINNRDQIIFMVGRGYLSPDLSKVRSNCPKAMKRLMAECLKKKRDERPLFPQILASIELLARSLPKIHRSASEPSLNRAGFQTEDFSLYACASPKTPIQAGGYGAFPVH
T2 sequence (P15056 2-766 V600E limits assumed): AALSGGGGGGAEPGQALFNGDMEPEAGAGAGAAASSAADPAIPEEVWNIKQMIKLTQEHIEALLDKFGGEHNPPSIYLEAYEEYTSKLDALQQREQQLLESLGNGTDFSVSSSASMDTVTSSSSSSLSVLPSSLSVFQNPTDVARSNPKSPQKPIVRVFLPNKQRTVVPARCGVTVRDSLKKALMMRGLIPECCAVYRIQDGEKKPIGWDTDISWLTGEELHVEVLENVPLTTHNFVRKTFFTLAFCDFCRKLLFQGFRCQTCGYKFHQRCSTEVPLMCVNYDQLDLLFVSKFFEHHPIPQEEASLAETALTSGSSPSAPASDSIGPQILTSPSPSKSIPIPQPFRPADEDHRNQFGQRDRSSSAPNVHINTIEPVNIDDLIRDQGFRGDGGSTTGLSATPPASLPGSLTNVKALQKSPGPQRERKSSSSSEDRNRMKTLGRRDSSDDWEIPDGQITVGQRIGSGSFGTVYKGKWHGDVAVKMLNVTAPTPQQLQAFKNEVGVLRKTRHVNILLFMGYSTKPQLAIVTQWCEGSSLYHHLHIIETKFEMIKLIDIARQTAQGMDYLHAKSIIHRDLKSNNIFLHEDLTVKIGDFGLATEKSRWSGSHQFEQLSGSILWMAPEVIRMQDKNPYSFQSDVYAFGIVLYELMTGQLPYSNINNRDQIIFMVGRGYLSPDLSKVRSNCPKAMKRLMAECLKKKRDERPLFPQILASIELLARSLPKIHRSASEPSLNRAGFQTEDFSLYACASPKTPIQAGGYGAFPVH

SMILES: CN(C)CCn1cnnc1-c1cc(Oc2ccc(NC(=O)N/N=C/c3cccc(Cl)c3Cl)cc2F)ccn1
- IC50 (NCI-H460): 70 nM
- IC50 (MKN-45): 50 nM

SMILES: COc1ccc(C(=O)NCCNc2nccc(-c3c(-c4ccc(F)cc4)nc4sccn34)n2)cc1
- IC50 (UO-31): 1420 nM
- IC50 (MCF7): 2000 nM

SMILES: CC(NC(=O)c1ccc(-c2ccc(NC(=O)Nc3ccc(C(F)(F)F)c(Cl)c3)cc2)cc1)c1ccccc1 (stereo unspecified)
- IC50 (MX1): 4630 nM

SMILES: CNC(=O)c1cc(Cn2ccc3cc(NC(=O)Nc4ccc(Cl)c(C(F)(F)F)c4)ccc32)ccn1
- IC50 [1]: 510 nM

SMILES: CNc1cc2c(cn1)cc(-c1ccc(F)c(NC(=O)Nc3cc(C(C)(C)C)no3)c1)c(=O)n2C1CCOC1 (stereo unspecified)
- IC50 (A-375 [2]): 6 nM
- IC50 [3]: 1000 nM
- IC50 (HCT-116): 32 nM

SMILES: O=S(=O)(NCCNc1nccc(-c2c(-c3ccc(F)cc3)nc3sccn23)n1)c1ccc(O)cc1
- IC50 [3]: 19 nM
- IC50 [4]: 40 nM

SMILES: Cc1ccc(C(=O)Nc2ccc(C(F)(F)F)c(Cl)c2)cc1NC(=O)C1(c2cc(NCCCN3CCN(C)CC3)ncn2)CC1
- IC50 [3]: 1.4 to 12.2 nM
- IC50 [5]: 25.3 nM
- IC50 [1]: 29.7 nM
- IC50 [4]: 13.3 nM

SMILES: O=C(NCCNc1nccc(-c2c(-c3ccc(F)cc3)nc3sccn23)n1)c1ccccc1
- IC50 (UO-31): 1750 nM
- IC50 (MCF7): 1430 nM

SMILES: CNC(=O)c1cc(Cn2cc(F)c3cc(NC(=O)Nc4ccc(Cl)c(C(F)(F)F)c4)ccc32)ccn1
- IC50 [1]: 1360 nM

SMILES: O=C(NCCNc1nccc(-c2c(-c3ccc(F)cc3)nc3sccn23)n1)Nc1ccccc1
- IC50 (UO-31): 2940 nM
- IC50 (MCF7): 3730 nM

SMILES: Cc1ccc(C(=O)Nc2ccc(C(F)(F)F)c(Cl)c2)cc1NC(=O)C1(c2ccnc(NCCN3CCN(C)CC3)n2)CC1
- IC50 [3]: 12.6 nM
- IC50 [6]: 12.6 nM
- IC50 [7]: 30.1 nM
- IC50 [8]: 19.7 nM
- IC50 [9]: 17.5 nM
- IC50 (A-375 [10]): 1070 nM
- IC50 (COLO 205): 1920 nM
- IC50 (SK-MEL-2): < 400 nM

SMILES: O=S(=O)(c1ccc(F)cc1)N1CCCC(Nc2nccc(-c3c(-c4ccc(F)cc4)nc4sccn34)n2)C1 (stereo unspecified)
- IC50 [3]: 23 nM

SMILES: COc1cc2c(cnc3[nH]nc(C4CC4)c32)cc1-c1c(F)ccc(NS(=O)(=O)CCCF)c1F
- IC50 (A-375 [2]): 13 nM
- IC50 [3]: 7 nM

SMILES: CC(NC(=O)c1cccc(-c2ccc(NC(=O)Nc3ccc(C(F)(F)F)c(Cl)c3)cc2)c1)c1ccccc1 (stereo unspecified)
- IC50 (A-375 [2]): 5170 nM
- IC50 (MX1): 5170 to 6460 nM
- IC50 (HepG2): 5170 to 6460 nM
- IC50 (KETR3): 5170 to 6460 nM
- IC50 (HT-29): 5170 to 6460 nM

SMILES: CNC(=O)c1cc(Oc2ccc(NC(=O)Nc3ccc(Cl)c(C(F)(F)F)c3)cc2)ccn1 [SORAFENIB]
- IC50 (A-375 [2]): 8270 to 18800 nM
- IC50 (MX1): 8270 to 18800 nM
- IC50 (HepG2): 8270 to 18800 nM
- IC50 (KETR3): 8270 to 18800 nM
- IC50 (HT-29): 3610 to 18800 nM

Source: ChEMBL document CHEMBL4270647, “Recent advances of RAF (rapidly accelerated fibrosarcoma) inhibitors as anti-cancer agents” (Eur J Med Chem, 2018)
